According to US10092568B2, “CBP/Catenin antagonists for enhancing asymmetric division of somatic stem cells” (University of Southern California, priority 2010, dated 2018):
“Also recorded” adds a separate entry of the source.

Tests used:
Colorectal cancer cells = assay: Survivin expression and cytotoxicity in colorectal cancer cells; format: cell-based
Description: Cancer. The importance of Wnt signaling in colorectal cancer is undisputed. Applicant's investigation on the therapeutic utility of ICG-001 therefore quite naturally began with colon cancer.

[1] = biological target: CBP/beta-catenin interaction (Homo sapiens, UniProt Q92793); assay: Disruption of the CBP/beta-catenin interaction; format: biochemical
Description: Applicant next mapped the binding domains between CBP and beta-catenin, as well as between p300 and beta-catenin. The C-terminal trans-activating region of beta-catenin (647-781) interacted with the same 1-111 amino acids of both CBP and p300 (23). However, only the interaction between CBP and beta-catenin was disrupted by ICG-001, and not the p300/beta-catenin interaction.

mice = assay: Topical treatment of mothers throughout pregnancy, offspring development; format: in vivo, mouse; conditions: mothers treated topically, 0.5M, conception to birth
Description: Acute Promyelocytic Leukemia (APL) is unique among myeloid leukemias due to its sensitivity to all-trans retinoic acid (ATRA), a derivative of vitamin A. Treatment with ATRA dissociates the NCOR-HDACL complex from RAR and allows DNA transcription and differentiation of the immature leukemic promyelocytes into mature granulocytes by targeting the oncogenic transcription factor and its aberrant action. […] A large number of scientific studies have also investigated a possible role for vitamin D in cancer prevention, including colon, prostate, breast, pancreatic and skin cancer. […] However, there are also reports of synergistic effects on the activation of gene expression by ATRA and Wnt for example (47). […] This is the same region of these coactivator proteins (i.e., CBP and p300) that partners with catenin (both beta and gamma) and the CBP/catenin antagonists (e.g., ICG-001) also bind to this region. These nuclear receptor ligands have many of the same differentiating effects on stem cell populations that applicant has observed with specific CBP/catenin antagonists. Although, both Vitamin A and D are required during development and have many beneficial health effects in adulthood, both are teratogenic at high levels. […]

[2] = tested on: human skin (surgical waste); assay: Ex vivo human skin assay, qRT-PCR; format: cell-based; conditions: 24 hrs; 5 uM ICG-001, 5 uM methylated ICG-001, 1 ug/ml RA
Description: Methods. Ex Vivo human skin assay culture conditions were based upon a paper by Varani J et al Experimental and Molecular Pathology, 2004.
Briefly, human skin (surgical waste from plastic surgery procedures) was obtained and the subcutaneous layer of fat was trimmed manually with a scalpel. The skin was then cut into small fragments about 2 mm square and placed in 6 well plates. 1 ml of keratinocyte culture medium (Gibco 10724-011) with 1% P/S (penstrep antibiotic) was added to each well. The epidermis, bathed in media was placed facing up. On the next day (overnight culture in the media above), the skin fragments were transferred to fresh wells that contained either 5 uM ICG-001, 5-uM methylated ICG-001 or 1 ug/ml of retinoic acid (RA). After 24 hrs, skin samples in culture were removed for RNA isolation and qRT-PCR analysis of genes of interest (e.g., elastin (a gene involved in skin appearance and pliability (e.g., wrinkling)) and aquaporin 1, which is involved with hydration.

[3] = tested on: NOD/SCIDIL2R gamma−/− mice; assay: Leukemia mouse model, hair growth and wound healing; format: in vivo; conditions: 50 mg/kg/d with VDL versus VDL only
Description: NOD/SCIDIL2R gamma−/− mice were shaved and sublethally irradiated prior intravenous injection of 50,000 cells per animal. Leukemic animals were treated with a combination of intraperitoneally administered vincristine/dexamethasone/L-Aspariginase (VDL) and ICG-001 (50 mg/kg/d), which was delivered via subcutaneous osmotic pumps to ensure stable plasma levels, with VDL only as a control for 20 days. The animals were checked periodically for survival, hair growth, and wound healing.

MDA-MB-231 cells = assay: Stem cell markers in triple negative breast cancer cell line; format: cell-based
Description: This phenotype CD44^hi, CD24^lo has been associated with a subpopulation of cells that behave like a breast cancer stem/tumor initiating cell population (51). […] Beyond reduction of survivin message level, there is a gene expression profile consistent with the occurrence of a mesenchymal to epithelial (MET) transition (i.e., decreased expression of twist, vimentin and S100A4 and an increase in E-cadherin expression). Recently, there have been a number of papers, which have correlated epithelial to mesenchymal transition (EMT) with a CSC phenotype (52). EMT is a normal physiologic process that is important in development and in adults, for example in wound healing, but pathophysiologically is associated with tumor metastasis and organ fibrosis (see later discussion on fibrosis). Specific CBP/catenin antagonists can reverse this aberrant EMT in vivo (EMT also plays a critical role in the skin in hair loss etc. J Dermatol Sci. 2011 Jan; 61(1):7-13. Epub 2010 Dec. 5; epithelial-mesenchymal transition (EMT) plays important roles not only in the morphogenesis but also in wound repair, tissue fibrosis and cancer progression. Recently, regulatory mechanism of this process has been elaborately elucidated. EMT can be a new therapeutic target for treating skin ulcer, fibrosing alopecia, and malignant cutaneous cancers, including squamous cell carcinoma and melanoma).

[4] = tested on: rat type II lung epithelial cells; assay: TGF-β1-induced EMT genes in lung epithelial cells; format: cell-based
Description: Fibrosis. Idiopathic pulmonary fibrosis (IPF)/usual interstitial pneumonia (UIP), the most common of the idiopathic interstitial pneumonias, is a devastating, progressive disorder characterized by excessive fibroblast proliferation and extracellular matrix remodeling leading to lung destruction. There is currently no effective therapy for this uniformly fatal disease. An emerging paradigm proposes a central role for alveolar epithelial cell injury and dysregulated repair in the pathogenesis of IPF. Injury to the epithelium is thought to initiate a cascade of fibroblast activation and matrix deposition, which in predisposed hosts fails to resolve as it would in the course of normal wound repair. Epithelial cells undergo excessive apoptosis, whereas fibroblasts are less amenable to apoptosis and manifest increased survival. The well-characterized model of bleomycin-induced lung injury has been extensively used to investigate potential pathways involved in the pathogenesis of pulmonary fibrosis and to explore therapeutic approaches.

Sequence of CBP/beta-catenin interaction (Q92793 whole entry, the tested form may be a part): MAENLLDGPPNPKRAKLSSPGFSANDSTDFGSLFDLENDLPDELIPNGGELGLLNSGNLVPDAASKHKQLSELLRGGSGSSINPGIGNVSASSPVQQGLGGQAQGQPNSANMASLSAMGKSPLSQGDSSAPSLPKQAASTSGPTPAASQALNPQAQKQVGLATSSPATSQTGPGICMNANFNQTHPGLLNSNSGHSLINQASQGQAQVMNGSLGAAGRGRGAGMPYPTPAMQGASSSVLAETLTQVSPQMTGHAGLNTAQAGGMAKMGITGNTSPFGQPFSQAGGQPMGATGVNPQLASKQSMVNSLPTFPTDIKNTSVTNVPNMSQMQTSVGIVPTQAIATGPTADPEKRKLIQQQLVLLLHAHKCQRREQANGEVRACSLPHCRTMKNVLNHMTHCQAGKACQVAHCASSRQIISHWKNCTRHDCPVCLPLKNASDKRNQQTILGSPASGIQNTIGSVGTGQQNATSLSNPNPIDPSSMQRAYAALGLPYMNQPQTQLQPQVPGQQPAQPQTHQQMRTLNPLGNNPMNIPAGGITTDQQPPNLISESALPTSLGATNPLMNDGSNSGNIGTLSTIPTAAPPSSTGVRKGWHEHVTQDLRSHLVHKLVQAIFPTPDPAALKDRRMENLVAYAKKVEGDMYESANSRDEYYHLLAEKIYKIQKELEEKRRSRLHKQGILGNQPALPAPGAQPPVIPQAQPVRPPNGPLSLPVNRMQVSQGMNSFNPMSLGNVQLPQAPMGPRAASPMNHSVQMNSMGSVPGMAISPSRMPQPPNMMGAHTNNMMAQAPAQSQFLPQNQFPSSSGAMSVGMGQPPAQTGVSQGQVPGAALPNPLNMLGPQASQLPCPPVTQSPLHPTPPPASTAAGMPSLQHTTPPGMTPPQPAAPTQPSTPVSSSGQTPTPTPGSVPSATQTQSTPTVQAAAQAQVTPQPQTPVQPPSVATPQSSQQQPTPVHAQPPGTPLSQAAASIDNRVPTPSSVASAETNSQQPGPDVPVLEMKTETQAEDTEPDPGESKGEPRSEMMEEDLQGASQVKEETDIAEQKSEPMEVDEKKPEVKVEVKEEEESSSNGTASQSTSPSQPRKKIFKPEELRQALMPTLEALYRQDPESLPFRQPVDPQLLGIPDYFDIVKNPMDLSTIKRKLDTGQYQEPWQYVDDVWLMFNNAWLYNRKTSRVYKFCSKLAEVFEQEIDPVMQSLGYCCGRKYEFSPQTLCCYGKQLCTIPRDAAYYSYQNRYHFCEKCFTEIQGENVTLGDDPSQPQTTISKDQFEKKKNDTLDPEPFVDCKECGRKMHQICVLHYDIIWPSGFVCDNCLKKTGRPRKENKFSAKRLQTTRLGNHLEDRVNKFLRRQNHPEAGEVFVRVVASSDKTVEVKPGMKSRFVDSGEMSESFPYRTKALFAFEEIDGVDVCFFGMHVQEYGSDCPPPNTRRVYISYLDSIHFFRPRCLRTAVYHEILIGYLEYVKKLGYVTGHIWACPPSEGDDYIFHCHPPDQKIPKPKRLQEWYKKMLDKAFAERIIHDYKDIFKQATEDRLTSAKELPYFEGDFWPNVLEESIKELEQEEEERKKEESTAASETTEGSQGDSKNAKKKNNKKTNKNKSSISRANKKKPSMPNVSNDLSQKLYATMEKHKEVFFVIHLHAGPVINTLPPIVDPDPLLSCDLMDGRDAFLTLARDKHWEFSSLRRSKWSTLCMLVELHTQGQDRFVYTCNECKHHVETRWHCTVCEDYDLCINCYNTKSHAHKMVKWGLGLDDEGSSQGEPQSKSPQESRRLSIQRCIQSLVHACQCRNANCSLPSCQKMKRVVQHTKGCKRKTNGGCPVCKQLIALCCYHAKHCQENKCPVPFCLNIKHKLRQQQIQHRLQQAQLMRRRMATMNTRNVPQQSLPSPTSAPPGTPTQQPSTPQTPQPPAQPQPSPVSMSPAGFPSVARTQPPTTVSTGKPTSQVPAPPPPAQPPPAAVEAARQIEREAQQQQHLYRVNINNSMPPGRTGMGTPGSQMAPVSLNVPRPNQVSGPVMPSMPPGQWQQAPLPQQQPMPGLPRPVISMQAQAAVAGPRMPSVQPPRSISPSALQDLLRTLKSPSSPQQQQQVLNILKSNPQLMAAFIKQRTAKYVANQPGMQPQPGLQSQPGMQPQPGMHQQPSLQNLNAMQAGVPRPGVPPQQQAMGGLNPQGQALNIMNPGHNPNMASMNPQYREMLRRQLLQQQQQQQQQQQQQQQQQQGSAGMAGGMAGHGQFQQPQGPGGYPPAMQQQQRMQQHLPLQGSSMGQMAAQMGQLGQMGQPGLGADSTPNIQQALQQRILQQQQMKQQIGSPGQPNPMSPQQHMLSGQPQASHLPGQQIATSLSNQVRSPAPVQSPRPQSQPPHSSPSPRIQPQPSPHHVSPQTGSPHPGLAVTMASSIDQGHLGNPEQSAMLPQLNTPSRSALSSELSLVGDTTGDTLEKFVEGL

## O=C1[C@H](Cc2ccc(O)cc2)N2C(=O)CCN(C(=O)NCc3ccccc3)[C@H]2CN1Cc1cccc2ccccc12 [ICG-001]
Colorectal cancer cells
  survivin expression: down-regulated
Colorectal cancer cells; colorectal cancer cells versus normal colonic epithelial cells
  cytotoxicity: selective cytotoxicity
[1]
  interaction between CBP and beta-catenin: disrupted
mice
  fertility of offspring: could breed a second generation
  weight and size of offspring at 6 weeks of age: normal weight and size
[2]
  expression of aquaporin 1: increase
  expression of elastin: increase
[3]
  healing of wounds from pump insertion: had substantial improved; also recorded: heal quicker
[3]; within two weeks
  hair growth of shaved area: had regrown their hair; also recorded: substantial hair growth
MDA-MB-231 cells
  ALDH activity: dramatically decreases
  side population (SP): dramatically decreases
MDA-MB-231 cells; ChIP
  recruitment of p300 to the CD24 promoter: increased recruitment
MDA-MB-231 cells; MDA-MB-231
  CD44 expression: decreasing
MDA-MB-231 cells; MDA-MB-231, 24h
  expression of cell surface CD24: significantly increased
[4]
  TGF-β1-induced up-regulation of α-SMA and type I collagen: prevents
